# Test results: ChEMBL document CHEMBL2069253, “Dipeptidyl peptidase-4 inhibitor with β-amino amide scaffold: synthesis, SAR and biological evaluation” (Bioorg Med Chem Lett, 2012)
# Experiments:
# Dipeptidyl peptidase 4 = Dipeptidyl peptidase 4 (Mus musculus, UniProt P28843); assay: Inhibition of mouse DPP4
# CYP3A4 [1] = target: T1, CYP3A4 (Homo sapiens, UniProt P08684); assay: Inhibition of CYP3A4 at 1 uM; assay type: ADME
# CYP3A4 [2] = target: T1, CYP3A4; assay: Inhibition of CYP3A4 at 3 uM; assay type: ADME
# CYP3A4 [3] = target: T1, CYP3A4; assay: Inhibition of CYP3A4 at 10 uM; assay type: ADME
# Mus musculus [4] = species on record: Mus musculus; assay: animal or person; settings: C57BL/6J, Plasma, po, 1 h
# Description: In vivo inhibition of DPP4 in po dosed C57BL/6J mouse plasma measured after 1 hr
# Mus musculus [5] = species on record: Mus musculus; assay: animal or person; settings: C57BL/6J, Plasma, po, 1 h, read-out: INH
# Description: In vivo inhibition of DPP4 in C57BL/6J mouse plasma at 0.3 mg/kg, po measured after 1 hr
# Mus musculus [6] = species on record: Mus musculus; assay: animal or person; settings: C57BL/6J, Plasma, po, 1 h, read-out: INH; remark: listed apart in the source
# Description: In vivo inhibition of DPP4 in C57BL/6J mouse plasma at 1 mg/kg, po measured after 1 hr
# Mus musculus [7] = species on record: Mus musculus; assay: animal or person; settings: C57BL/6J, Plasma, po, 1 h, read-out: INH; remark: listed apart in the source
# Description: In vivo inhibition of DPP4 in C57BL/6J mouse plasma at 3 mg/kg, po measured after 1 hr
# Mus musculus [8] = species on record: Mus musculus; assay: animal or person; settings: C57BL/6J, Plasma, po, 1 h, read-out: INH; remark: listed apart in the source
# Description: In vivo inhibition of DPP4 in C57BL/6J mouse plasma at 10 mg/kg, po measured after 1 hr
# Cytochrome P450 3A4 [9] = target: T2, Cytochrome P450 3A4 (Homo sapiens, UniProt P08684); assay: Inhibition of CYP3A4; assay type: ADME
# Cytochrome P450 3A4 [10] = target: T2, Cytochrome P450 3A4; assay: Induction of CYP3A4 at 50 uM; assay type: ADME
# [11] = Half life in rat at 10 mg/kg, po; assay type: ADME, organism-based; design: dose 10 mg/kg, route oral; settings: in vivo
# [12] = Cmax in rat at 10 mg/kg, po; assay type: ADME, organism-based; design: dose 10 mg/kg, route oral; settings: in vivo
# [13] = Oral bioavailability in rat at 10 mg/kg; assay type: ADME, organism-based; settings: in vivo
# [14] = Stability in mouse plasma assessed as compound remaining at 1 hr; assay type: ADME, cell-free; settings: read-out: Stability
# [15] = Stability in rat plasma assessed as compound remaining at 1 hr; assay type: ADME, cell-free; settings: read-out: Stability
# [16] = Stability in human plasma assessed as compound remaining at 1 hr; assay type: ADME, cell-free; settings: read-out: Stability
# [17] = Protein binding in mouse; assay type: ADME, organism-based; settings: plasma, read-out: PB (converted)
# [18] = Protein binding in rat; assay type: ADME, organism-based; settings: plasma, read-out: PB (converted)
# [19] = Protein binding in human; assay type: ADME, organism-based; settings: plasma, read-out: PB (converted)
# [20] = Solubility of the compound at pH 1-9; assay type: physicochemical; settings: buffer
# [21] = Metabolic stability in rat liver microsomes assessed as compound remaining at 1 hr; assay type: ADME, Microsome; settings: read-out: Stability
# [22] = Metabolic stability in mouse liver microsomes assessed as compound remaining at 1 hr; assay type: ADME, Microsome; settings: read-out: Stability
# [23] = Metabolic stability in dog liver microsomes assessed as compound remaining at 1 hr; assay type: ADME, Canis lupus familiaris, Microsome; settings: read-out: Stability
# [24] = Metabolic stability in human liver microsomes assessed as compound remaining at 1 hr; assay type: ADME, Microsome; settings: read-out: Stability
# Rattus norvegicus [25] = species on record: Rattus norvegicus; assay: animal or person; settings: Sprague-Dawley, Plasma, po, 6 h, read-out: INH
# Description: In vivo inhibition of DPP4 in Sprague-Dawley rat plasma at 10 mg/kg, po administered as single dose measured up to 6 hrs
# Rattus norvegicus [26] = species on record: Rattus norvegicus; assay: animal or person; settings: Sprague-Dawley, Plasma, po, 24 h, read-out: INH
# Description: In vivo inhibition of DPP4 in Sprague-Dawley rat plasma at 10 mg/kg, po administered as single dose measured after 24 hrs
# Mus musculus [27] = species on record: Mus musculus; assay: animal or person; settings: C57BL/6J, po, 2 h
# Description: Antidiabetic activity in po dosed C57BL/6J mouse assessed as reduction in glucose AUC administered prior to glucose challenge measured up to 120 mins
# Mus musculus [28] = species on record: Mus musculus; assay: animal or person; settings: C57BL/6J, po, 1 h, read-out: INH
# Description: In vivo inhibition of DPP4 in C57BL/6J mouse at 1 mg/kg, po measured after 1 hr
# Mus musculus [29] = species on record: Mus musculus; assay: animal or person; settings: C57BL/6J, po, 1 h, read-out: INH; remark: listed apart in the source
# Description: In vivo inhibition of DPP4 in C57BL/6J mouse at 3 mg/kg, po measured after 1 hr
# Mus musculus [30] = species on record: Mus musculus; assay: animal or person; settings: C57BL/6J, po, 1 h, read-out: INH; remark: listed apart in the source
# Description: In vivo inhibition of DPP4 in C57BL/6J mouse at 10 mg/kg, po measured after 1 hr
# T2 sequence (P08684 whole entry): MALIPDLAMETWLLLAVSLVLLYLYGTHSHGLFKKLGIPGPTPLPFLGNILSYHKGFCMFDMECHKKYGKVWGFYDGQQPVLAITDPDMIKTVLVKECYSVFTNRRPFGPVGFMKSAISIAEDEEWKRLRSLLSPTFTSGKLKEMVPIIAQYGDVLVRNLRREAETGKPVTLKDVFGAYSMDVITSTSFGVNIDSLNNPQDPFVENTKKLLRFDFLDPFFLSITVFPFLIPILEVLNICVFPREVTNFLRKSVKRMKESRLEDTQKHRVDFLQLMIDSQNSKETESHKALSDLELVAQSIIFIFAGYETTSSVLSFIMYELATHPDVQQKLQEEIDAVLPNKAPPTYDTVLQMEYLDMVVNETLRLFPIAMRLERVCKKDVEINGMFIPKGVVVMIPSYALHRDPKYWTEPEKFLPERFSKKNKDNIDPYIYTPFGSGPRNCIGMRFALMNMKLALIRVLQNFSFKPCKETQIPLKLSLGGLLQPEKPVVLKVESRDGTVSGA
# T1 sequence (P08684 whole entry): as above
# Dipeptidyl peptidase 4, sequence (P28843 whole entry): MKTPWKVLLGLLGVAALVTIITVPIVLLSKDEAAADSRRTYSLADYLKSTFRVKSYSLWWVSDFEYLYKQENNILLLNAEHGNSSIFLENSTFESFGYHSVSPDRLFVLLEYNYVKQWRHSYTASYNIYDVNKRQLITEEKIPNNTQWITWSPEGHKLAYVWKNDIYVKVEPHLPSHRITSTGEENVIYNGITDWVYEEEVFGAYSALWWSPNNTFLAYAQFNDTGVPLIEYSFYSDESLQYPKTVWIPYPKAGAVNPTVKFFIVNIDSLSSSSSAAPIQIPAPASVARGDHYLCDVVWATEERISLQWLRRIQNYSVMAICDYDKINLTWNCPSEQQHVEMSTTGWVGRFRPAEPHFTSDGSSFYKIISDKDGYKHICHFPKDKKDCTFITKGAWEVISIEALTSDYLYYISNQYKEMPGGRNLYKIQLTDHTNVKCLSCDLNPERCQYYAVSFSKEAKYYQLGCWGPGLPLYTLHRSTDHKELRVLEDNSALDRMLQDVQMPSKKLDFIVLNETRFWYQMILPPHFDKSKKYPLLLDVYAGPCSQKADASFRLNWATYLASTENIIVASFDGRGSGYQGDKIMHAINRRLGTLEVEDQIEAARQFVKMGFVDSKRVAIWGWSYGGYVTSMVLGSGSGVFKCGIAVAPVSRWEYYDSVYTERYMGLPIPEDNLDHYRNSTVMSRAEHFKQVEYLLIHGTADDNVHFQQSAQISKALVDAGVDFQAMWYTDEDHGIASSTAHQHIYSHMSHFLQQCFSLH
compound,measurement,setting,value
N[C@@H](CC(=O)N1CCN(c2ccc(F)cc2F)CC1)Cc1cc(F)c(F)cc1F,IC50,Dipeptidyl peptidase 4,0.0944 µM
same,inhibition at 1 µM,CYP3A4 [1],81.5%
same,inhibition at 3 µM,CYP3A4 [2],94%
same,inhibition at 10 µM,CYP3A4 [3],100%
same,ED50,Mus musculus [4],0.87 mg/kg
same,inhibition in vivo at 0.3 mg/kg,Mus musculus [5],33.8%
same,inhibition in vivo at 1 mg/kg,Mus musculus [6],52.2%
same,inhibition in vivo at 3 mg/kg,Mus musculus [7],68.6%
same,inhibition in vivo at 10 mg/kg,Mus musculus [8],85.9%
N[C@@H](CC(=O)N1CCN(C(=O)c2ccccc2)CC1)Cc1cc(F)c(F)cc1F,IC50,Cytochrome P450 3A4 [9],1 µM
N[C@@H](CC(=O)N1CCN(C(=O)c2ccc(F)cc2)CC1)Cc1cc(F)c(F)cc1F,IC50,Cytochrome P450 3A4 [9],1 µM
N[C@@H](CC(=O)N1CCN(C(=O)c2ccc(O)cc2)CC1)Cc1cc(F)c(F)cc1F,IC50,Cytochrome P450 3A4 [9],1 µM
N[C@@H](CC(=O)N1CCN(C(=O)c2ccc(OC(F)(F)F)cc2)CC1)Cc1cc(F)c(F)cc1F,IC50,Cytochrome P450 3A4 [9],1 µM
N[C@@H](CC(=O)N1CCN(C(=O)c2ccc(C(F)(F)F)cc2)CC1)Cc1cc(F)c(F)cc1F,IC50,Cytochrome P450 3A4 [9],1 µM
N[C@@H](CC(=O)N1CCN(C(=O)c2ccc(S(N)(=O)=O)cc2)CC1)Cc1cc(F)c(F)cc1F,IC50,Cytochrome P450 3A4 [9],1 µM
N[C@@H](CC(=O)N1CCN(C(=O)c2ccc(C(=O)O)cc2)CC1)Cc1cc(F)c(F)cc1F,IC50,Cytochrome P450 3A4 [9],1 µM
N[C@@H](CC(=O)N1CCN(C(=O)c2cccc(C(=O)O)c2)CC1)Cc1cc(F)c(F)cc1F,IC50,Cytochrome P450 3A4 [9],1 µM
CN1CCN(c2ccc(C(=O)N3CCN(C(=O)C[C@H](N)Cc4cc(F)c(F)cc4F)CC3)cc2)CC1,IC50,Cytochrome P450 3A4 [9],1 µM
N[C@@H](CC(=O)N1CCN(C(=O)c2ccccn2)CC1)Cc1cc(F)c(F)cc1F,Activity,Cytochrome P450 3A4 [10],< 10%
same,half-life,[11],4.74 h
same,Cmax,[12],2030 ng/mL
same,bioavailability,[13],65.3%
same,remaining at 1 h,[14],> 97%
same,remaining at 1 h,[15],> 97%
same,remaining at 1 h,[16],97%
same,fraction unbound,[17],0.557
same,fraction unbound,[18],0.729
same,fraction unbound,[19],0.497
same,solubility,[20],> 10000 µg/mL
same,remaining at 1 h,[21],85%
same,remaining at 1 h,[22],79%
same,remaining at 1 h,[23],88%
same,remaining at 1 h,[24],89%
same,inhibition in vivo at 10 mg/kg,Rattus norvegicus [25],60%
same,inhibition in vivo at 10 mg/kg,Rattus norvegicus [26],30%
same,ED30,Mus musculus [27],0.38 mg/kg
same,inhibition in vivo at 1 mg/kg,Mus musculus [28],32.5%
same,inhibition in vivo at 3 mg/kg,Mus musculus [29],59.1%
same,inhibition in vivo at 10 mg/kg,Mus musculus [30],84.6%
